Some test systems named below: MALME-3M melanoma; UACC-62 melanoma; MDA-MB-231 breast; RPMI-8226 leukemia; M14 melanoma; T-47D breast; OVCAR-5 ovarian; COLO 205 colon; DU-145 prostate; KM12 colon; HCT-15 colon; NCI/ADR-RES ovarian; MDA-N; NCI-H522 lung; CCRF-CEM leukemia; PC-3 prostate; A498 renal; NCI-H460 lung; SF-539 CNS; SR leukemia.
Assay in all cases: NCI-60 cell line screen, 48 h

The structures appear in SMILES notation.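 All cell lines were grown in 96-well plates and treated with compound for 48 hours. TGI denotes the concentration required for complete inhibition of growth.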 Bounds are passed on as bounds.

As to `CC(C)=NN/C(=N\S(=O)(=O)c1ccc(C)cc1)Nc1ccc(Cl)cc1`, the TGI in the assay on MALME-3M melanoma, in the assay on UACC-62 melanoma, with MDA-MB-231 breast, in the assay with RPMI-8226 leukemia, in the assay with M14 melanoma and in the assay on T-47D breast was over 100 µM throughout. In addition, the TGI in the assay with OVCAR-5 ovarian, in the assay on COLO 205 colon, in the assay on DU-145 prostate, with KM12 colon, in the assay on HCT-15 colon and in the assay with NCI/ADR-RES ovarian was over 100 µM each time. For the same compound, the TGI in the assay on MDA-N, in the assay on NCI-H522 lung, in the assay with CCRF-CEM leukemia, with PC-3 prostate, with A498 renal and with NCI-H460 lung was over 100 µM in each case.

For the compound `CC(C)(C)c1cc(C(C)(C)C)c(SS(=O)(=O)O)c(O)c1O`, the TGI was over 100 µM in the assay with MALME-3M melanoma; 37.4 µM in the assay with SF-539 CNS; 55.2 µM with UACC-62 melanoma; over 100 µM in the assay with MDA-MB-231 breast; over 100 µM with RPMI-8226 leukemia; over 100 µM with M14 melanoma. Also, the TGI with T-47D breast, in the assay on OVCAR-5 ovarian, in the assay with COLO 205 colon, in the assay with DU-145 prostate, with KM12 colon and in the assay with HCT-15 colon was over 100 µM each time. The TGI with NCI/ADR-RES ovarian, in the assay on MDA-N, in the assay with CCRF-CEM leukemia, with PC-3 prostate, in the assay on A498 renal and with NCI-H460 lung was over 100 µM throughout.

Regarding `N#Cc1c(O)c(N=Nc2ccccc2F)c(=O)n2c1[nH]c1ccccc12`, the TGI with MALME-3M melanoma was over 100 µM; in the assay on SF-539 CNS, over 100 µM; with UACC-62 melanoma it was over 100 µM; with MDA-MB-231 breast, 90.8 µM; in the assay with M14 melanoma, over 100 µM; with OVCAR-5 ovarian, over 100 µM. The TGI in the assay on COLO 205 colon is over 100 µM; in the assay on DU-145 prostate, over 100 µM; with HCT-15 colon, over 100 µM; with NCI/ADR-RES ovarian, over 100 µM; in the assay on MDA-N it was over 100 µM; in the assay on NCI-H522 lung it was 94.9 µM. Moreover, the TGI in the assay on CCRF-CEM leukemia, with PC-3 prostate, in the assay on A498 renal and in the assay on NCI-H460 lung was over 100 µM in each case.

`Cn1nc2ccc3nccc(N4CCN(CCO)CC4)c3c2n1`: the TGI with MALME-3M melanoma, in the assay with UACC-62 melanoma, in the assay on MDA-MB-231 breast, with M14 melanoma, in the assay on T-47D breast and in the assay with OVCAR-5 ovarian was over 100 µM each time. Further, the TGI with COLO 205 colon, in the assay on DU-145 prostate, in the assay with KM12 colon, in the assay with HCT-15 colon, with MDA-N and with NCI-H522 lung was over 100 µM in each case. Besides, the TGI with CCRF-CEM leukemia, in the assay on PC-3 prostate, with A498 renal and with NCI-H460 lung was over 100 µM throughout.

Take `Cc1ccc2c(=O)c3cccc(CC(=O)O)c3[nH]c2c1C`: the TGI with MALME-3M melanoma, in the assay with SF-539 CNS, in the assay with UACC-62 melanoma, in the assay with MDA-MB-231 breast, in the assay with RPMI-8226 leukemia and in the assay with M14 melanoma was over 100 µM throughout. The TGI in the assay with COLO 205 colon, with DU-145 prostate, in the assay with KM12 colon, with HCT-15 colon, in the assay on NCI/ADR-RES ovarian and in the assay with SR leukemia was over 100 µM each time. Moreover, the TGI with MDA-N, in the assay with NCI-H522 lung, with CCRF-CEM leukemia, in the assay with PC-3 prostate, in the assay on A498 renal and in the assay with NCI-H460 lung was over 100 µM in each case.

For the compound `Nc1nc(N)c(NC(=O)CCCO)c(=O)[nH]1`, the TGI in the assay on MALME-3M melanoma, with SF-539 CNS, in the assay on UACC-62 melanoma, in the assay on MDA-MB-231 breast, with RPMI-8226 leukemia and with M14 melanoma was over 100 µM each time. For the same compound, the TGI in the assay on T-47D breast, with OVCAR-5 ovarian, in the assay on COLO 205 colon, in the assay on DU-145 prostate, in the assay on KM12 colon and with HCT-15 colon was over 100 µM in each case. The TGI with NCI/ADR-RES ovarian, in the assay on MDA-N, in the assay with NCI-H522 lung, in the assay with CCRF-CEM leukemia, with PC-3 prostate and in the assay on A498 renal was over 100 µM throughout. Moreover, the TGI in the assay with NCI-H460 lung was over 100 µM.

For `CCCCCCCCCc1cc(-c2ccc(C=O)s2)sc1-c1ccc(C=O)s1`, the TGI in the assay on MALME-3M melanoma is over 100 µM; with SF-539 CNS, over 84.3 µM; in the assay on UACC-62 melanoma it was 23.7 µM; in the assay on MDA-MB-231 breast, over 77.9 µM; in the assay with RPMI-8226 leukemia, 51.2 µM; in the assay on M14 melanoma it was 25 µM. In addition, the TGI was over 85.6 µM in the assay with T-47D breast; over 91.6 µM in the assay with OVCAR-5 ovarian; over 31.6 µM in the assay on COLO 205 colon; over 100 µM in the assay with DU-145 prostate; over 100 µM in the assay with KM12 colon; over 72.7 µM with HCT-15 colon. The TGI was over 78.6 µM in the assay on NCI/ADR-RES ovarian; 26.9 µM in the assay with SR leukemia; 45.6 µM in the assay on NCI-H522 lung; 8.51 µM in the assay on CCRF-CEM leukemia; over 100 µM in the assay on PC-3 prostate; 3.12 µM with A498 renal. The TGI in the assay on NCI-H460 lung was over 83.2 µM.

On to `O=C(NC(CS)C(=O)O)c1cccc2c(=O)c3ccccc3[nH]c12` (stereo not given), for which the TGI in the assay on MALME-3M melanoma, in the assay on UACC-62 melanoma, with MDA-MB-231 breast, in the assay on RPMI-8226 leukemia, in the assay on M14 melanoma and in the assay on OVCAR-5 ovarian was over 100 µM each time. For the same compound, the TGI in the assay with COLO 205 colon, in the assay on DU-145 prostate, in the assay on KM12 colon, in the assay on HCT-15 colon, in the assay on NCI/ADR-RES ovarian and in the assay on SR leukemia was over 100 µM in each case. In addition, the TGI in the assay on MDA-N, in the assay on NCI-H522 lung, in the assay on PC-3 prostate and with A498 renal was over 100 µM in each case.

Values taken from PubChem BioAssay (NCI).
